# Measured values from patent US20250333421A1, “PYRIDAZINES OR 1,2,4-TRIAZINES SUBSTITUTED BY SPIROCYCLIC AMINES” (Janssen Pharmaceutica NV, priority 2021, published 2025).
# Key:
# MOLM14 cells = experiment: Proliferation assay (spheroid assay) in MOLM14; format: cell-based; conditions: Homo sapiens, MOLM-14, 192 h; MOLM14 (MLL-AF9), 8 days, confluence as measure of spheroid size; read-out: spheroid assay_OneTime MOLM14 IC50
# Procedure: (§1) The anti-proliferative effect of menin/MLL protein/protein interaction inhibitor test compounds was assessed in human leukemia cell lines. The cell line MOLM14 harbors a MLL translocation and expresses the MLL fusion proteins MLL-AF9, respectively, as well as the wildtype protein from the second allele. […] KO-52 was used as a control cell line containing two MLL (KMT2A) wildtype alleles in order to exclude compounds that display general cytotoxic effects.
# MOLM14 cells were cultured in RPMI-1640 (Sigma Aldrich) supplemented with 10% heat-inactivated fetal bovine serum (HyClone), 2 mM L-glutamine (Sigma Aldrich) and 50 µg/ml gentamycin (Gibco). KO-52 cell lines were propagated in alpha-MEM (Sigma Aldrich) supplemented with 20% heat-inactivated fetal bovine serum (HyClone), 2 mM L-glutamine (Sigma Aldrich) and 50 µg/ml gentamycin (Gibco).
# In order to assess the anti-proliferative effects, 200 MOLM14 cells, or 300 KO-52 cells were seeded in 200 μl media per well in 96-well round bottom, ultra-low attachment plates (Costar, catalogue number 7007). Cell seeding numbers were chosen based on growth curves to ensure linear growth throughout the experiment. Test compounds were added at different concentrations and the DMSO content was normalized to 0.3%. Cells were incubated for 8 days at 37° C. and 5% CO2. Spheroid like growth was measured in real-time by live-cell imaging (IncuCyteZOOM, Essenbio, 4× objective) acquiring images at day 8. Confluence (%) as a measure of spheroid size was determined using an integrated analysis tool.
# In order to determine the effect of the test compounds over time, the confluence in each well as a measure of spheroid size, was calculated. Confluence of the highest dose of a reference compound was used as baseline for the LC (Low control) and the confluence of DMSO treated cells was used as 0% cytotoxicity (High Control, HC).
# Absolute IC50 values were calculated as percent change in confluence as follows:
# LC=Low Control: cells treated with e.g. 1 μM of the cytotoxic agent staurosporin, or e.g. cells treated with a high concentration of an alternative reference compound
# GraphPad Prism (version 7.00) was used to calculate the IC50. Dose-response equation was used for the plot of % Effect vs Log10 compound concentration with a variable slope and fixing the maximum to 100% and the minimum to 0%.
# KO-52 cells = experiment: Proliferation assay (spheroid assay) in KO-52 control cell line; format: cell-based; conditions: Homo sapiens, 192 h; KO-52 (MLL wildtype control), 8 days, confluence as measure of spheroid size; read-out: spheroid assay_OneTime KO-52 IC50
# Procedure: as §1
# MOLM14 cells were cultured in RPMI-1640 (Sigma Aldrich) supplemented with 10% heat-inactivated fetal bovine serum (HyClone), 2 mM L-glutamine (Sigma Aldrich) and 50 µg/ml gentamycin (Gibco). […]
# In order to assess the anti-proliferative effects, 200 MOLM14 cells, or 300 KO-52 cells were seeded in 200 μl media per well in 96-well round bottom, ultra-low attachment plates (Costar, catalogue number 7007). […] Spheroid like growth was measured in real-time by live-cell imaging (IncuCyteZOOM, Essenbio, 4× objective) acquiring images at day 8. Confluence (%) as a measure of spheroid size was determined using an integrated analysis tool.
# In order to determine the effect of the test compounds over time, the confluence in each well as a measure of spheroid size, was calculated. […]
# Absolute IC50 values were calculated as percent change in confluence as follows: […]
# Menin/MLL = target: T1, Menin/MLL (Homo sapiens, UniProt O00255, T541A); experiment: Menin/MLL homogenous time-resolved fluorescence (HTRF) assay; format: binding; conditions: 30 min incubation of test compound with terbium chelate-labeled menin; FITC-MBM1 peptide
# T1 construct: Menin (a.a 1-610-6xhis tag)
# T1 sequence (O00255 with tags, fused parts or gaps T541A): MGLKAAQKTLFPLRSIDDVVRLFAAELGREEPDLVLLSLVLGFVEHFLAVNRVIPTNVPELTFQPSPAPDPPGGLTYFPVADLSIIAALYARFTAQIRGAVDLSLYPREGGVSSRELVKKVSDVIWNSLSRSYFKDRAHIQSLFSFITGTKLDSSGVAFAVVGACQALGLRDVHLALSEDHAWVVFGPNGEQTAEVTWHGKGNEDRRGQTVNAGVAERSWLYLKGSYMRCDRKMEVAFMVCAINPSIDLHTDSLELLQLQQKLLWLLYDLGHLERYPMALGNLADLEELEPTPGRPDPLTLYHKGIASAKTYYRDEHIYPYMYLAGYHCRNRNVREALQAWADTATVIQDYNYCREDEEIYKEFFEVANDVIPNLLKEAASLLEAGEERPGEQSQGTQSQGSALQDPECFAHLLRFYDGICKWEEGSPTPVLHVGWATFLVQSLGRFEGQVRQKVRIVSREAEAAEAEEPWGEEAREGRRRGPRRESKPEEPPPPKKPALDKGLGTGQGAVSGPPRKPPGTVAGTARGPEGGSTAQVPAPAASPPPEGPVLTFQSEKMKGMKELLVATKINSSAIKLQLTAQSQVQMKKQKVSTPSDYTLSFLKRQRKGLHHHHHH
# Procedure: 1) Menin/MLL homogenous time-resolved fluorescence (HTRF) assay
# To an untreated, white 384-well microtiter plate was added 40 nL 200X test compound in DMSO and 4 μL 2X terbium chelate-labeled menin (vide infra for preparation) in assay buffer (40 mM Tris-HCl, pH 7.5, 50 mM NaCl, 1 mM DTT (dithiothreitol) and 0.05% Pluronic F-127). After incubation of test compound and terbium chelate-labeled menin for 30 min at ambient temperature, 4 μL 2X FITC-MBM1 peptide (FITC-β-alanine-SARWRFPARPGT-NH2 (SEQ ID NO: 2)) (“FITC” means fluorescein isothiocyanate) in assay buffer was added, the microtiter plate centrifuged at 1000 rpm for 1 min and the assay mixtures incubated for 15 min at ambient temperature. The relative amount of menin FITC--MBM1 complex present in an assay mixture is determined by measuring the homogenous time-resolved fluorescence (HTRF) of the terbium/FITC donor/acceptor fluorphore pair using an EnVision microplate reader (ex. 337 nm/terbium em. 490 nm/FITC em. 520 nm) at ambient temperature. The degree of fluorescence resonance energy transfer (the HTRF value) is expressed as the ratio of the fluorescence emission intensities of the FITC and terbium fluorophores (F^em 520 nm/F^em 490 nm). The final concentrations of reagents in the binding assay are 200 pM terbium chelate-labeled menin, 75 nM FITC-MBM1 peptide and 0.5% DMSO in assay buffer. Dose-response titrations of test compounds are conducted using an 11 point, four-fold serial dilution scheme, starting typically at 10 μM.
# Compound potencies were determined by first calculating % inhibition at each compound concentration according to equation 1: […]
# Where LC and HC are the HTRF values of the assay in the presence or absence of a saturating concentration of a compound that competes with FITC-MBM1 for binding to menin, and HTRF^compound is the measured HTRF value in the presence of the test compound. HC and LC HTRF values represent an average of at least 10 replicates per plate.
# Where Bottom and Top are the lower and upper asymptotes of the dose-response curve, respectively, IC50 is the concentration of compound that yields 50% inhibition of signal and h is the Hill coefficient. IC50 values below 0.1 nM in the HTRF assay were reported as 0.1 nM in the Table below (detection limit).
# Preparation of Terbium cryptate labeling of Menin: Menin (a.a 1-610-6xhis tag, 2.3 mg/mL in 20 mM Hepes (2-[4-(2-Hydroxyethyl)-1-piperazinyl]ethane sulfonic acid), 80 mM NaCl, 5 mM DTT (Dithiothreitol), pH 7.5) was labeled with terbium cryptate as follows. 200 μg of Menin was buffer exchanged into lx Hepes buffer. 6.67 μM Menin was incubated with 8-fold molar excess NHS (N-hydroxysuccinimide)-terbium cryptate for 40 minutes at room temperature. Half of the labeled protein was purified away from free label by running the reaction over a NAP5 column with elution buffer (0.1M Hepes, pH 7+0.1% BSA (bovine serum albumin)). The other half was eluted with 0.1 M phosphate buffered saline (PBS), pH7. 400 μl of eluent was collected for each, aliquoted and frozen at −80° C. The final concentration of terbium-labeled Menin protein was 115 μg/mL in Hepes buffer and 85 μg/mL in PBS buffer, respectively.
IC50 (MOLM14 cells) [nM],IC50 (Menin/MLL) [nM],SMILES,IC50 (KO-52 cells) [nM]
50,–,"CCN(C(=O)c1cc(F)ccc1Oc1nncnc1N1CCC2(C1)CN(C(CCCN(C)CCSC)C(C)C)C2)C(C)C (single isomer, unassigned) [Compound 1]",11900
5,–,"CCN(C(=O)c1cc(F)ccc1Oc1nncnc1N1CCC2(C1)CN(C(CCCNCCSC)C(C)C)C2)C(C)C (single isomer, unassigned) [Compound 3]",–
21,0.208,"CCN(C(=O)c1cc(F)ccc1Oc1nncnc1N1CCC2(C1)CN(C(CCCNCCOC(F)(F)F)C(C)C)C2)C(C)C (single isomer, unassigned) [Compound 4]",–
220,0.11,"CCN(C(=O)c1cc(F)ccc1Oc1nncnc1N1CCC2(C1)CN(C(CCCN(C)CCOCCN)C(C)C)C2)C(C)C (single isomer, unassigned) [Compound 5]",–
100,–,"CCN(C(=O)c1cc(F)ccc1Oc1nncnc1N1CCC2(C1)CN(C(CCCN(C)CCOCCCCN)C(C)C)C2)C(C)C (single isomer, unassigned) [Compound 6]",–
7,0.121,"CCN(C(=O)c1cc(F)ccc1Oc1nncnc1N1CCC2(C1)CN(C(CCCNCCOC(F)F)C(C)C)C2)C(C)C (single isomer, unassigned) [Compound 7]",–
16,0.182,"CCN(C(=O)c1cc(F)ccc1Oc1nncnc1N1CCC2(C1)CN(C(CCCN(C)CCOC(F)F)C(C)C)C2)C(C)C (single isomer, unassigned) [Compound 8]",–
190,–,"COCCN(C)CCC[C@H](C(C)C)N1CC2(CCN(c3ncnnc3Oc3ccc(F)cc3C(=O)N(CCN)C(C)C)C2)C1 (single isomer, unassigned) [Compound 9]",–
460,–,"COCCN(C)CCC[C@H](C(C)C)N1CC2(CCN(c3ncnnc3Oc3ccc(F)cc3C(=O)N(CCCCN)C(C)C)C2)C1 (single isomer, unassigned) [Compound 10]",–
60,–,"C#CCN(C)CCCC(C(C)C)N1CC2(CCN(c3ncnnc3Oc3ccc(F)cc3C(=O)N(CC)C(C)C)C2)C1 (single isomer, unassigned) [Compound 11]",–
29,–,"C=CCN(C)CCCC(C(C)C)N1CC2(CCN(c3ncnnc3Oc3ccc(F)cc3C(=O)N(CC)C(C)C)C2)C1 (single isomer, unassigned) [Compound 12]",–
–,1.97,"CCN(C(=O)c1cc(F)ccc1Oc1nncnc1N1CCC2(C1)CN(C(CCCN(C)CCOC)C(C)(C)C)C2)C(C)C (single isomer, unassigned) [Compound 13a]",–
21,–,"CCN(C(=O)c1cc(F)ccc1Oc1nncnc1N1CCC2(C1)CN(C(CCCN(C)CCOC)C(C)(C)C)C2)C(C)C (single isomer, unassigned) [Compound 13b]",–
–,2.97,"CCN(CC(C)O)C(=O)c1cc(F)ccc1Oc1nncnc1N1CCC2(C1)CN(C(CCCN(C)CCOC)C(C)C)C2 (single isomer, unassigned) [Compound 16]",–
–,79.3,"CCN(CC(C)O)C(=O)c1cc(F)ccc1Oc1nncnc1N1CCC2(C1)CN(C(CCCN(C)CCOC)C(C)C)C2 (single isomer, unassigned) [Compound 17]",–
–,35.5,"CCN(C[C@@H](C)O)C(=O)c1cc(F)ccc1Oc1nncnc1N1CCC2(C1)CN([C@H](CCCN(C)CCOC)C(C)C)C2 (single isomer, unassigned) [Compound 18]",–
430,0.29,"CCN(C(=O)c1cc(F)ccc1Oc1nncnc1N1CCC2(C1)CN([C@H](CCN(C)CCS(N)(=O)=O)C(C)C)C2)C(C)C (single isomer, unassigned) [Compound 20]",–
–,18.2,"CC(C)N(C(=O)c1cc(F)ccc1Oc1nncnc1N1CCC2(C1)CN(C(CC(O)CN(C)C)C(C)(C)C)C2)C(C)C (single isomer, unassigned) [Compound 22]",–
–,4.57,"CC(C)N(C(=O)c1cc(F)ccc1Oc1nncnc1N1CCC2(C1)CN(C(CC(O)CN(C)C)C(C)(C)C)C2)C(C)C (single isomer, unassigned) [Compound 23]",–
–,35.5,"CCN(C)C[C@H](O)C[C@@H](N1CC2(CCN(c3ncnnc3Oc3ccc(F)cc3C(=O)N(CC)C(C)C)C2)C1)C(C)(C)C (single isomer, unassigned) [Compound 24]",–
–,6.46,"CCN(C)C[C@@H](O)C[C@H](N1CC2(CCN(c3ncnnc3Oc3ccc(F)cc3C(=O)N(CC)C(C)C)C2)C1)C(C)(C)C (single isomer, unassigned) [Compound 25]",–
> 940,6.66,CCN(CC(C)O)C(=O)c1cc(F)ccc1Oc1nncnc1N1CCC2(C1)CN(C(CCCN(C)CCOC)C(C)C)C2 (stereo not drawn) [Compound 14],–
470,0.331,COCCN(C)CCC[C@H](C(C)C)N1CC2(CCN(c3ncnnc3Oc3ccc(F)cc3C(=O)N(CCNC(C)=O)C(C)C)C2)C1 [Compound 15],–
32,–,COCCN(C)CCC[C@H](C(C)C)N1CC2(CCN(c3ncnnc3Oc3ccc(F)cc3C(=O)N(CCO)C(C)C)C2)C1 [Compound 19],–
–,13.7,CCN(C(=O)c1cc(F)cc(Br)c1Oc1nncnc1N1CCC2(C1)CN([C@H](CCCN(C)CCOC)C(C)C)C2)C(C)C [Compound 21],–
